pEC50: −log10 of the molar value. Structures can show the parent of a compound that is named as a salt. Where two headings read alike, the source gives them in different places.
Legend:
IL-23p19 = test: LPS induced IL23p19 in THP-1 cells (with IFNγ primed) assay; type: cell-based, Human; conditions: THP-1 cells, IFNγ primed, LPS 1 ug/mL, 18 hours, 10 pt, read-out: IL23-p19 ELISA, THP1-IFNy, LPS, 10 pt EC50
How it was run: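 Readout is secreted IL-23p19, quantified by chemiluminescent sandwich ELISA after 18 h LPS (1 ug/mL) stimulation of THP-1 cells that had been IFNγ-primed (50 ng/mL, ~18 h) and given compound 1 h beforehand at 37 °C. EC50 derived by curve fit; cytotoxicity tracked with Cell Titer Glo.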

IL-23 (p19/p40) = test: IL23-p19 ELISA, Dendritic, LPS (compound screening using DC cells); type: cell-based, Human; conditions: PBMC-derived DC cells, IFNγ primed, LPS 1 μg/ml, 18 hours, 10 pt, read-out: IL23-p19 ELISA, Dendritic, LPS, 10 pt, EC50
How it was run: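 IL-23 in supernatants quantified by sandwich ELISA (anti-p19 capture, biotinylated anti-p40 detection, chemiluminescent readout) after 18 h LPS (1 μg/ml) stimulation. Cells were monocyte-derived DCs (GM-CSF/IL-4, 7 d), IFNγ-primed 24 h and given compound 1 h before LPS; viability by CellTiter Glo.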

Row | Structure (SMILES) | pEC50 (IL-23p19; Homo sapiens, THP-1, 18 h) | pEC50 (IL-23 (p19/p40); Homo sapiens, 18 h) | other results
1 | COC1CC(n2cc(NC(=O)c3ccc(-c4cn[nH]c4)o3)c(-c3ccccn3)n2)C1 (stereo not drawn) [Compound I-72, N-{1-(3-Methoxycyclobutyl)-3-(pyridine-2-yl)-1H-pyrazol-4-yl}-5-(1H-pyrazol-4-yl)furan-2-carboxamide, Cis isomer] |  |  | pEC50 (IL-23p19): 7.25; pEC50 (IL-23 (p19/p40)): 8.30
2 | COCCn1cc(NC(=O)c2ccc(-c3c[nH]nc3C(F)(F)F)o2)c(-c2ccccn2)n1 [Compound I-13, N-(1-(2-methoxyethyl)-3-(pyridin-2-yl)-1H-pyrazol-4-yl)-5-(3-(trifluoromethyl)-1H-pyrazol-4-yl)furan-2-carboxamide] | 3.86 | 4.96 | 
3 | CCO[C@H]1C[C@@H](n2cc(NC(=O)c3csc(-c4cnn(COP(=O)(O)O)c4)n3)c(-c3ccccn3)n2)C1 [II-78, (4-(4-((1-((1,3-cis)-3-ethoxycyclobutyl)-3-(pyridin-2-yl)-1H-pyrazol-4-yl)carbamoyl)thiazol-2-yl)-1H-pyrazol-1-yl)methyl phosphate calcium salt] |  |  | pEC50 (IL-23p19; phosphate calcium salt): 6.78; pEC50 (IL-23 (p19/p40); phosphate calcium salt): 7.10
4 | CCO[C@H]1C[C@@H](n2cc(NC(=O)c3csc(-c4cnn(COP(=O)(O)O)c4)n3)c(-c3ccccn3)n2)C1 [II-84, (4-(4-((1-((1,3-cis)-3-ethoxycyclobutyl)-3-(pyridin-2-yl)-1H-pyrazol-4-yl)carbamoyl)thiazol-2-yl)-1H-pyrazol-1-yl)methyl phosphate Tris salt] |  |  | pEC50 (IL-23p19): 7.07; pEC50 (IL-23 (p19/p40)): 6.52
5 | COCCn1cc(NC(=O)c2ccc(-c3cnn(C(=O)OC(C)(C)COCc4ccc(OC)cc4)c3)o2)c(-c2ccccn2)n1 [Compound I-22, 1-((4-methoxybenzyl)oxy)-2-methylpropan-2-yl 4-(5-((1-(2-methoxyethyl)-3-(pyridin-2-yl)-1H-pyrazol-4-yl)carbamoyl)furan-2-yl)-1H-pyrazole-1-carboxylate] | 6.69 | 5.81 | 
6 | CCO[C@H]1C[C@@H](n2cc(NC(=O)c3csc(-c4cnn(COCC[Si](C)(C)C)c4F)n3)c(-c3ccccn3)n2)C1 [II-71, N-(1-((1s,3s)-3-ethoxycyclobutyl)-3-(pyridin-2-yl)-1H-pyrazol-4-yl)-2-(5-fluoro-1-((2-(trimethylsilyl)ethoxy)methyl)-1H-pyrazol-4-yl)thiazole-4-carboxamide] | 4.30 | 4.98 | 

The next lines start with results.

Row | pEC50 (IL-23p19; Homo sapiens, THP-1, 18 h) | pEC50 (IL-23 (p19/p40); Homo sapiens, 18 h) | Structure (SMILES) | other results
7 | 6.77 | 6.72 | CC(C)(C)OC(=O)N1CC(n2cc(NC(=O)c3csc(-c4cn[nH]c4)n3)c(-c3ccccn3)n2)C1 [II-54] | 
8 | 7.13 | 7.36 | O=C(Nc1cn(C2CNC2)nc1-c1ccccn1)c1csc(-c2cn[nH]c2)n1 [II-55, N-{1-(Azetidin-3-yl)-3-(pyridine-2-yl)-1H-pyrazol-4-yl}-2-(1H-pyrazol-4-yl)thiazole-4-carboxamide] | 
9 | 7.51 | 7.49 | O=C(Nc1cn(C2CCC3(CC2)OCCO3)nc1-c1ncccc1F)c1csc(-c2cn[nH]c2)n1 [II-140, N-(3-(3-fluoropyridin-2-yl)-1-(1,4-dioxaspiro[4.5]decan-8-yl)-1H-pyrazol-4-yl)-2-(1H-pyrazol-4-yl)thiazole-4-carboxamide] | 
10 | 6.83 | 6.43 | O=C(Nc1cn([C@H]2C[C@@H](OCC(F)(F)F)C2)nc1-c1ccccn1)c1ccc(-c2cn[nH]c2)o1 [Compound I-146, 5-(1H-pyrazol-4-yl)-N-(3-(pyridin-2-yl)-1-((1s,3s)-3-(2,2,2-trifluoroethoxy)cyclobutyl)-1H-pyrazol-4-yl)furan-2-carboxamide formate] | 
11 | 7.16 | 7.58 | CCO[C@H]1C[C@@H](n2cc(NC(=O)c3ccc(-c4cn[nH]c4)o3)c(-c3ncccc3F)n2)C1 [Compound I-142, N-(1-((1s,3s)-3-ethoxycyclobutyl)-3-(3-fluoropyridin-2-yl)-1H-pyrazol-4-yl)-5-(1H-pyrazol-4-yl)furan-2-carboxamide formate] | 
12 | 7.11 | 6.95 | Cn1cc(NC(=O)c2csc(-c3cn[nH]c3)n2)c(-c2ccccn2)n1 [II-26, N-(1-methyl-3-(pyridin-2-yl)-1H-pyrazol-4-yl)-2-(1H-pyrazol-4-yl)thiazole-4-carboxamide] | 
